The target in one series is T1, TXNIP/TRX interaction (Homo sapiens, UniProt Q9H3M7).
T1 construct: endogenous in cells; host or cells: THP1 cells cultured under 25 mM glucose; nuclear cell extracts
T1 sequence (Q9H3M7 1-391): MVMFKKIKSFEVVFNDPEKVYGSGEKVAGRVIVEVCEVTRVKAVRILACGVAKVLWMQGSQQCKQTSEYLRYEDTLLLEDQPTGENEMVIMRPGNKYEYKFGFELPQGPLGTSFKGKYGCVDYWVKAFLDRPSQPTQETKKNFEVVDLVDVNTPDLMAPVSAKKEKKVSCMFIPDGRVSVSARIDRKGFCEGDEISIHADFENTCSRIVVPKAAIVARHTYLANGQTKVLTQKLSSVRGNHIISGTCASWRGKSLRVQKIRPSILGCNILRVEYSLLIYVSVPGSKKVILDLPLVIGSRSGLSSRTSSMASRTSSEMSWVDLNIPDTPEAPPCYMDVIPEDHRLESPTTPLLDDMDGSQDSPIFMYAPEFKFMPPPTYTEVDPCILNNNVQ
Put plainly: TXNIP/TRX co-immunoprecipitation in THP1 cells. The format is cell-based. Conditions: 25 mM glucose, 5 uM compound, up to 72 hours. The protocol:
FIG. 8. Effects of C30 and C38 on TXNIP/TRX interaction. THP1 cells were cultured under 25 mM glucose with 5 uM C30 or C38 for 72 hours. Aliquots were taken at different time points as indicated and nuclear cell extracts were prepared. Standard co-IP was performed with mouse anti-TRX Ab overnight. Beads were washed with buffer and blots treated with rabbit anti-TXNIP antibody (Ab) for detection of the complex (upper band).
(§1) Experimental testing of small molecules: We developed several different bench-based assays to perform rigorous and reproducible tests for the predicted hit molecules. These assays include testing direct binding to TXNIP as well as functional assays including under diabetic high glucose conditions. The assays are: (1) drug affinity responsive target stability test that tests the direct binding of the compounds. In this assay, when a compound binds to its target molecule, it can reduce the rate of its proteolytic digestion. (2) This assay looks for compounds that can interfere with the interaction between TXNIP and TRX in THP-1 monocytes treated with high glucose. TXNIP is highly expressed in cells treated with high glucose, and therefore would have high concentration of TXNIP/TRX complexes in the cell extract. Co-immunoprecipitation was done in these extracts through adding TRX antibody, and then the effects of compounds added were tested. […]

Series [1] can be described thus: Body weight after maximum dose regime (90 mg/kg) in mice. The format is in vivo. To be noted: 90 mg/kg oral gavage daily for 5 days, euthanasia 96 hr after last dose. The protocol: FIG. 15. Murine weight change after maximum dose regime (90 mg/kg).
The effects of compounds C30 and C38 at single high dose of 90 mg/kg. Twelve male mice were divided into three groups: 1) Control group (4 mice), 2) compound C30 (4 mice) and 3) compound C38 (4 mice). By oral gavage, animals were given 90 mg/kg of agent daily for 5 consecutive days (vehicle: 30% Solutol in saline). Mice were weighed every day during the treatment period. They were humanely euthanized 96 hours after the last dose. Tissues including the pancreas, liver and kidneys were collected (snap frozen in liquid nitrogen) for RNA extraction. […] Those given compound C30 lost ˜5% of body weight (FIG. 15).

The next series addresses T2, TXNIP (Homo sapiens, UniProt Q9H3M7).
T2 construct: THP1 cells were lysed with extract buffer; endogenous in cells; host or cells: THP1 cells cultured in RPMI 1640 under 25 mM glucose for 72 hours; cell extracts
T2 sequence (Q9H3M7 1-391): T1 sequence (Q9H3M7 1-391)
Briefly: Drug affinity responsive target stability (DARTS) assay, THP1 cell extracts. In kind it is binding. To be noted: THP-1 cell extracts, protease, aliquots at 7 minutes. The protocol:
FIG. 9. Treatment with C30 and C38 protects TXNIP from proteolysis in a DARTS assay. THP1 cell were cultured in RPMI 1640 medium under 25 mM glucose for 72 hours. Cell extracts were prepared. C30 and C38 were added at the indicated concentrations and protease was added except control lanes. Aliquots were withdrawn at 7 minutes and loaded on 10% SDS gels. Control: without protease.
as §1

Molecules are shown by their SMILES.

Consider `COc1cc(N2CC[C@@H](c3ccc4ccccc4c3)[C@H](O)C2)nc(N)n1` [Compound C30], for which the “TXNIP association/interaction with TRX (co-IP band)” value at TXNIP/TRX interaction is on record as “significantly reduced”. The “loss of body weight” value in series [1] is listed as about 5%. Besides, on TXNIP, the “concentration from which TXNIP is protected from proteolysis” value is about 0.5 µM.
As to `c1ccc(CCNc2ncnc3c2oc2ccccc23)cc1` [Compound C38], the “TXNIP association/interaction with TRX (co-IP band)” value at TXNIP/TRX interaction is recorded as “this interference was clearly reduced”. In series [1], the weight loss entry is given as “no significant weight loss”. The “concentration from which TXNIP is protected from proteolysis” value at TXNIP was about 0.5 µM.

Source of the values: patent US11964984B2, “TXNIP-TRX complex inhibitors and methods of using the same” (CITY OF HOPE, priority 2020, dated 2024).
